Literature values, collected in patent US12440455B2, “Methods of administering cannabinoids” (IMPACT NATURALS, INC., priority 2022, dated 2025).

Columns and labels:
SARS-CoV-2 = conditions: Nguyen et al., Sci. Adv. 8, eabi6110 (2022)
CB2 = CB2 (Homo sapiens, UniProt P34972); conditions: WHO assessment
CB2, sequence (P34972 whole entry, species assumed): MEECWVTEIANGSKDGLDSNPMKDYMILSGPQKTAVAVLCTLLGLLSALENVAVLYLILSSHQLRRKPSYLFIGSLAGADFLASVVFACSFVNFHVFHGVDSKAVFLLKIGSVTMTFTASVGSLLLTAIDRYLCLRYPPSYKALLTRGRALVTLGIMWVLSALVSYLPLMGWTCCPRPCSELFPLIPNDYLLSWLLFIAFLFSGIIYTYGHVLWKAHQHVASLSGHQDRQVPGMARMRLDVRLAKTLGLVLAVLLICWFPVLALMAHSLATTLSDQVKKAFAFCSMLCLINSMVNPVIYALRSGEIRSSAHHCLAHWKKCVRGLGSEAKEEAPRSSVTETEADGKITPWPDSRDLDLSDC

SMILES: C=C(C)[C@@H]1CCC(C)=C[C@H]1c1c(O)cc(CCCCC)cc1O [Cannabidiol]
- inhibition of SARS-CoV-2 replication (SARS-CoV-2): inhibit SARS-CoV-2 replication
- affinity to CB2 (CB2): low affinity
- aqueous solubility: approximately 0.013 milligrams per milliliter
